The format of data set [1] is physicochemical. Conditions: pH 7.4.
For data set [2] the following is noted: male, Sprague-Dawley, rat, in vivo, 10 mg/kg.
The nature of the next data set: in vivo. Conditions: male, Sprague-Dawley, rat, iv, 10 mg.
The next data set concerns MI rat models. Set-up: species or system Sprague-Dawley rats. Conditions: in vivo, iv, 10 mg/kg.

Molecules are shown by their SMILES.

A word on the AUC(0-inf): it is total exposure, with the tail of the curve extrapolated. The low end stands for less exposure, the high end for more exposure. As a reminder, the AUC(0-t) is the area under the concentration-time curve up to a stated or last time point. Lower therefore signals low exposure. Usually Vd stands for a proportionality between amount in the body and measured concentration, not a real space. Lower therefore signals confinement near the circulation. As usually defined, the clearance is a measure of how efficiently the substance is removed, as volume per time. High values mean a high capacity for elimination, low ones a low capacity for elimination. What is called half-life is the time needed for the level to fall by half in the phase considered. Read a low half-life as fast loss.

In the case of `COc1cc2c(c(OC)c1OC)-c1c(cc3c(c1OC)OCO3)CC(C)C(C)C2` (centres unmarked) [Sch B solution, Schisandrin B], the “time to complete release of Sch B” value in data set [1] is not above 2 h. Moreover, the “time until cleared from the circulation” value in data set [2] is not above 4 h. For the same molecule, in “in vivo”, the area under the curve AUC(0-inf) is 13700 ± 1540 ng·h/mL, the area under the curve AUC(0-t) was 12400 ± 1310 ng·h/mL, the Vd turned out to be 18.5 ± 2.61 L/kg and the clearance was 65.7 mL/min/kg. Besides, the half-life in “in vivo” is 55.8 ± 5.4 min. Further, the infarct size in the data set with MI rat models turned out to be 36.5%.

Values taken from paper PMC5627750 (International Journal of Nanomedicine, 2017).
